Results reported in ChEMBL document CHEMBL1132263, “Synthesis of caged peptides using caged lysine: application to the synthesis of caged AIP, a highly specific inhibitor of calmodulin-dependent protein kinase II” (Bioorg Med Chem Lett, 1999).
Where a SMILES comes first, the peptide text is derived from it. The star is where a group is joined. X1 = O=C(OCc1ccccc1[N+](=O)[O-])*; Cbz = O=C(OCc1ccccc1)*

Target: CaM kinase II (Homo sapiens, UniProt Q13557+Q13555+Q13554+Q9UQM7)
Assay: Inhibitory activity of compound against CaMKII
Format: protein assay

IC50 [nM] | Compound
1000 | CC(C)C[C@H](NC(=O)[C@H](C)NC(=O)[C@H](CC(=O)O)NC(=O)[C@@H](NC(=O)[C@H](C)NC(=O)[C@H](CCC(=O)O)NC(=O)[C@H](CCC(N)=O)NC(=O)[C@H](CCCN=C(N)N)NC(=O)[C@H](CCCN=C(N)N)NC(=O)[C@H](CC(C)C)NC(=O)[C@H](C)NC(=O)OCc1ccccc1)C(C)C)C(=O)O (Cbz-ALRRQEAVDAL-OH)
1200 | CC(C)C[C@H](NC(=O)[C@H](C)NC(=O)[C@H](CC(=O)O)NC(=O)[C@@H](NC(=O)[C@H](C)NC(=O)[C@H](CCC(=O)O)NC(=O)[C@H](CCC(N)=O)NC(=O)[C@H](CCCN=C(N)N)NC(=O)[C@H](CCCN=C(N)N)NC(=O)[C@H](CC(C)C)NC(=O)[C@H](C)NC(=O)[C@H](CCCCNC(=O)OCc1ccccc1[N+](=O)[O-])NC(=O)[C@@H](N)CCCCNC(=O)OCc1ccccc1[N+](=O)[O-])C(C)C)C(=O)O (H-K(X1)K(X1)ALRRQEAVDAL-OH)
36 | CC(C)C[C@H](NC(=O)[C@H](C)NC(=O)[C@H](CC(=O)O)NC(=O)[C@@H](NC(=O)[C@H](C)NC(=O)[C@H](CCC(=O)O)NC(=O)[C@H](CCC(N)=O)NC(=O)[C@H](CCCN=C(N)N)NC(=O)[C@H](CCCN=C(N)N)NC(=O)[C@H](CC(C)C)NC(=O)[C@H](C)NC(=O)[C@H](CCCCN)NC(=O)[C@@H](N)CCCCNC(=O)OCc1ccccc1[N+](=O)[O-])C(C)C)C(=O)O (H-K(X1)KALRRQEAVDAL-OH)
32 | CC(C)C[C@H](NC(=O)[C@H](C)NC(=O)[C@H](CC(=O)O)NC(=O)[C@@H](NC(=O)[C@H](C)NC(=O)[C@H](CCC(=O)O)NC(=O)[C@H](CCC(N)=O)NC(=O)[C@H](CCCN=C(N)N)NC(=O)[C@H](CCCN=C(N)N)NC(=O)[C@H](CC(C)C)NC(=O)[C@H](C)NC(=O)[C@H](CCCCN)NC(=O)[C@@H](N)CCCCN)C(C)C)C(=O)O (H-KKALRRQEAVDAL-OH)
